The target of the assay is T1, GCase (Homo sapiens, UniProt P04062).
T1 construct: endogenous in cells; host or cells: HeLa cells
T1 sequence (P04062 40-536): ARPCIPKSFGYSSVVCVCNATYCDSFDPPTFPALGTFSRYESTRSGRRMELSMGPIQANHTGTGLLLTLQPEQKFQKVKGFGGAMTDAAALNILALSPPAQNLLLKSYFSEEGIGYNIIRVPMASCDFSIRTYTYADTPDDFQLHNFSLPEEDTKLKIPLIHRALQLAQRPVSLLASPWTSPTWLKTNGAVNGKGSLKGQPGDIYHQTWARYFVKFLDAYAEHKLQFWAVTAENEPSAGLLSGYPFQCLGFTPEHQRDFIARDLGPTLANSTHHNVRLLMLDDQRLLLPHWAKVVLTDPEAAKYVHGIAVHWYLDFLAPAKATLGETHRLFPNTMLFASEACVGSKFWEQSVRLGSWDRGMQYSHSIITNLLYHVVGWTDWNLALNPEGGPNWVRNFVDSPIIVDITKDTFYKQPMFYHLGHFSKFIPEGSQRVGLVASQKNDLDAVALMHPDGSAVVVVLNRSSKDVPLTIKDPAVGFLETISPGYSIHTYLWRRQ
Nature of the assay: activation of GCase in a live cell PFB assay in HELA cells. It counts as cell-based. The protocol:
Exemplary compounds were evaluated for activation of GCase in a live cell PFB assay in HELA cells (essentially as described in Ysselstein et al., “LRRK2 kinase activity regulates lysosomal glucocerebrosidase in neurons derived from Parkinson's disease patients” Nature Communications (2019) 10:5570). […] EC50 ranges: A: <10 μM; B: >10-50 μM; C: >50-100 μM; D: >100 μM.

The mark [1] stands for this setting: activation of GCase, EC50 ranges.

Broadly, the EC50 is the concentration needed to bring the measured effect to its halfway point.

Structures are written as SMILES. Where only a bound is given, the exact number is not on record here.

Regarding `Cc1nn(CC(F)F)c2nc(N3CCC4(CC3)CCN(c3ccc(C(F)(F)F)nc3)C4=O)cnc12` [Cmpd 260], the EC50 under setting [1] is under 10 µM.
Still for that read-out and setting: in the case of `Cc1nn(CC(F)F)c2nc(N3CCC4(CC3)CCN(c3nccc(C(F)(F)F)n3)C4=O)cnc12` [Cmpd 281] it was under 10 µM; in that of `FC(F)(F)c1ccc(N2CCCC3(C2)CN(c2cncc(-c4nncs4)n2)C3)cn1` [Compound 138, 2-[6-(1,3,4-thiadiazol-2-yl)pyrazin-2-yl]-6-[6-(trifluoromethyl)pyridin-3-yl]-2,6-diazaspiro[3.5]nonane], 10 to 50 µM.
Take `FC(F)(F)c1ncc(N2CC3(CCN(c4cncc(-c5nncs5)n4)C3)C2)cn1` [Cmpd 430]: the EC50 (EC50 given as range classes) was under 10 µM.
The compound `COc1nn(CC(F)F)c2nc(N3CCC4(CN(c5ccnc(C(F)(F)F)c5)C4)C3)cnc12` [Cmpd 936] showed an EC50 under setting [1] of under 10 µM.
As to `CCN1C(=O)N(c2ccc(C(F)(F)F)nc2)C(=O)C12CCN(c1cnc3cnn(CC(F)F)c3n1)CC2` [Cmpd 849], the EC50 under setting [1] was under 10 µM.
`FC(F)(F)c1ccc(N2CCC3(CCN(c4cncc(-n5ccnc5)n4)CC3)C2)cn1` [Cmpd 238]: the EC50 under setting [1] lay in the range of 10 to 50 µM.
`CCC1N(c2ccc(C(F)(F)F)cn2)C(=O)CC12CCN(c1cnc3cnn(CC(F)F)c3n1)CC2` (stereo not drawn) [Cmpd 851] returned an EC50 under setting [1] of under 10 µM.
The compound `Cc1nc(N2CC3(CCN(c4ncc5cnn(C(F)F)c5n4)C3)C2)cc(C(F)(F)F)n1` [Cmpd 650] displayed an EC50 under setting [1] of under 10 µM.
Regarding `Cc1nc(N2CC3(CCN(c4ncc5c(n4)n(CC(F)F)c(=O)n5C)C3)C2)cc(C(F)(F)F)n1` [Cmpd 1082], under setting [1], the EC50 was under 10 µM.
On the same count and under the same terms, in the case of `FC(F)Cn1ncc2ncc(N3CCC4(CC3)CC(Oc3ncccc3C(F)(F)F)C4)nc21` [Cmpd 708] it was 10 to 50 µM; in that of `O=C1N(Cc2ccc(C(F)(F)F)nc2)CCC12CCN(c1cnc3cnn(CC(F)F)c3n1)CC2` [Cmpd 308], 10 to 50 µM; in that of `Cc1nn(CC(F)F)c2nc(N3CC4(CCCN(c5ccc(C(F)F)nc5)C4)C3)cnc12` [Compound 159, 2-[1-(2,2-difluoroethyl)-3-methyl-1H-pyrazolo[3,4-b]pyrazin-6-yl]-6-[6-(difluoromethyl)pyridin-3-yl]-2,6-diazaspiro[3.5]nonane], over 100 µM.
`COc1nn(CC(F)F)c2nc(N3CCC4(CC3)CC(=O)N(c3ccc(C(F)(F)F)nc3)C4)cnc12` [Cmpd 837]: the EC50 under setting [1] is under 10 µM.
Consider `CC(c1cncc(Cl)c1)N1CC2(CCN(c3cnc4cnn(CC(F)F)c4n3)CC2)CC1=O` (stereo not drawn) [Cmpd 968], for which the EC50 under setting [1] is under 10 µM.
As to `Cc1cc(C(F)(F)F)nnc1N1CCC2(CCN(c3cnc4cnn(CC(F)F)c4n3)CC2)C1` [Cmpd 756], the EC50 under setting [1] is 10 to 50 µM.
Consider `CC(C(F)F)n1ncc2ncc(N3CCC4(CCN(c5cc(C(F)(F)F)ccn5)C4)CC3)nc21` (stereo not drawn) [Cmpd 752], for which the EC50 under setting [1] is under 10 µM.
Consider `Fc1cc(N2CCC3(CCN(c4cnc5cnn(CC(F)F)c5n4)CC3)C2)cnc1C(F)(F)F` [Cmpd 742], for which the EC50 under setting [1] was under 10 µM.
Regarding `Cc1ncc(CN2CC3(CCN(c4cnc5cnn(CC(F)F)c5n4)CC3)CC2=O)o1` [Cmpd 974], the half-maximal effective concentration (EC50) under setting [1] is 50 to 100 µM.
On the same count and under the same terms, in the case of `Cc1nnc(-c2cncc(N3CCC4(CN(c5ccnc(C(F)(F)F)c5)C4)C3)n2)s1` [Cmpd 1052] it was under 10 µM.
Under setting [1], `Cc1nc(N2CC3(CCN(c4cnc5cnn(CC(C)(F)F)c5n4)C3)C2)cc(C(F)(F)F)n1` [Cmpd 1117] came in with an EC50 of over 100 µM.
Compound `Cc1nc(C(F)F)cc(N2CC3(CCN(c4cnc5cnn(CC(F)F)c5n4)C3)C2)n1` [Cmpd 1139] showed an EC50 under setting [1] of under 10 µM.
The compound `O=C1CC2(CCN(c3cnc4cnn(CC(F)F)c4n3)CC2)CN1Cc1ccc(C(F)(F)F)cn1` [Cmpd 309] had an EC50 under setting [1] of 10 to 50 µM.
`O=C1N(c2cc(C(F)(F)F)ccn2)C(=O)C2(CCN(c3cnc4cnn(CC(F)F)c4n3)CC2)N1Cc1c(F)cccc1F` [Cmpd 715] returned an EC50 under setting [1] of under 10 µM.
For `CC(C)Cn1ncc2ncc(N3CCC4(CN(c5ccnc(C(F)(F)F)c5)C4)C3)nc21` [Cmpd 1126], the EC50 under setting [1] was under 10 µM.
Under setting [1], `COc1nc2cnn(CC(F)F)c2nc1N1CCC2(CC1)CC(=O)N(c1ccc(C(F)(F)F)nc1)C2` [Cmpd 836] displayed an EC50 of under 10 µM.
Regarding `CC1CC2(CCN(c3cnc4cnn(CC(F)F)c4n3)CC2)CN1c1ccc(C(F)(F)F)nc1` (stereo not drawn) [Cmpd 265], the EC50 under setting [1] was in the range of 10 to 50 µM.
For the compound `FC(F)Cn1ncc2ncc(N3CCC4(CCC(Oc5ccnc(C(F)(F)F)c5)C4)CC3)nc21` (stereo not drawn) [Cmpd 690], the EC50 under setting [1] is under 10 µM.
Turning to `CCc1nc(N2CC3(CCN(c4cnc5cnn(CC(F)F)c5n4)C3)C2)cc(C(F)(F)F)n1` [Cmpd 1089], the half-maximal effective concentration (EC50) under setting [1] fell in the range of 10 to 50 µM.
Under setting [1], `Cn1c(N2CCC3(CCN(c4ccc(C(F)(F)F)nc4)C3)CC2)nc2c(cnn2CC(F)F)c1=O` [Cmpd 1054] returned an EC50 of under 10 µM.
Take `FC(F)Cn1ncc2ncc(N3CCC4(CCC(Oc5ncccc5C(F)(F)F)C4)CC3)nc21` (stereo not drawn) [Cmpd 689]: the EC50 under setting [1] was 10 to 50 µM.
Still for that read-out and setting: under `FC(F)Cn1ncc2ncc(N3CCC4(CC3)CC(COc3cncc(C(F)(F)F)c3)C4)nc21` [Cmpd 696] stands under 10 µM.
Compound `FC(F)(F)CCn1ncc2ncc(N3CCC4(CN(c5ccnc(C(F)(F)F)c5)C4)C3)nc21` [Cmpd 1033] returned an EC50 (EC50 given as range classes) of under 10 µM.
Turning to `CCn1c(N2CCC3(CN(c4cc(C(F)(F)F)nc(C)n4)C3)C2)nc2c(cnn2CC(F)F)c1=O` [Cmpd 1103], the EC50 under setting [1] was under 10 µM.
Same read-out and setting: under `FC(F)Cn1ncc2ncc(N3CCC4(CC3)CN(c3cnc(C(F)(F)F)nc3)C4)nc21` [Cmpd 526] stands under 10 µM.
Consider `FC(F)Cn1ncc2ncc(N3CCC4(CN(c5ccnc(OC(F)(F)F)c5)C4)C3)nc21` [Cmpd 411], for which the EC50 (EC50 given as range classes) was 10 to 50 µM.
In turn, `FC(F)Cn1ncc2cnc(N3CCC4(CCN(c5cnc(C(F)(F)F)nc5)C4)C3)nc21` (stereo not drawn) [Cmpd 546] showed an EC50 under setting [1] of 10 to 50 µM.
`Cc1nc(N2CCC3(CC2)CCN(c2cnc4c(C)nn(CC(F)F)c4n2)C3)cc(C(F)(F)F)n1` [Cmpd 582] had an EC50 (EC50 given as range classes) of 10 to 50 µM.
For the compound `CCn1ncc2c(=O)n(C)c(N3CCC4(CN(c5cnc(C(F)(F)F)nc5)C4)C3)nc21` [Cmpd 990], under “EC50 given as range classes”, the EC50 was under 10 µM.
Regarding `Cc1ncc(N2CC3(CCN(c4cnc5c(C)nn(CC(F)F)c5n4)C3)C2)c(C(F)(F)F)n1` [Cmpd 593], the concentration for a half-maximal effect (EC50) (EC50 given as range classes) was over 100 µM.
`CCC1C(=O)N(c2cc(C(F)(F)F)ccn2)CC12CCN(c1cnc3cnn(CC(F)F)c3n1)CC2` (stereo not drawn) [Compound 75, 8-(1-(2,2-difluoroethyl)-1H-pyrazolo[3,4-b]pyrazin-6-yl)-4-ethyl-2-(4-(trifluoromethyl)pyridin-2-yl)-2,8-diazaspiro[4.5]decan-3-one] had an EC50 under setting [1] of under 10 µM.
With `Cc1nc(N2CC3(CCN(c4nccc(-c5nncs5)n4)C3)C2)cc(C(F)(F)F)n1` [Cmpd 1131], the EC50 under setting [1] was over 100 µM.
The same measure, in the same setting: in the case of `Cc1nc(N2CC3(CCN(c4ncc5cnn(CC(F)F)c5n4)CC3)C2)cc(C(F)(F)F)n1` [Cmpd 564] it was under 10 µM.
For `O=C(c1ccccc1Cl)N1CC2(CCN(c3cnc4cnn(CC(F)F)c4n3)C2)C1` [Cmpd 383], the EC50 (EC50 given as range classes) was under 10 µM.
On to `O=C1N(c2ccnc(C(F)(F)F)n2)CCC12CCN(c1ncc3cnn(CC(F)F)c3n1)CC2` [Cmpd 900], for which the EC50 under setting [1] is under 10 µM.
The same measure, in the same setting: in the case of `FC(F)Cn1ncc2ncc(N3CC4(CCN(c5ccnc(C(F)(F)F)c5)CC4)C3)nc21` [Compound 117, 2-[1-(2,2-difluoroethyl)-1H-pyrazolo[3,4-b]pyrazin-6-yl]-7-[2-(trifluoromethyl)pyridin-4-yl]-2,7-diazaspiro[3.5]nonane] it was under 10 µM; in that of `Cc1cc(N2CC3(CCN(c4cnc5c(C)nn(CC(F)F)c5n4)C3)C2)nc(C(F)(F)F)n1` [Cmpd 464], under 10 µM.
On to `Cc1c(N2CC3(CCN(c4cnc5cnn(C6COC6)c5n4)C3)C2)ccnc1C(F)(F)F` [Cmpd 1041], for which, under setting [1], the EC50 was over 100 µM.
In the case of `Cc1nn(CC(F)F)c2nc(N3CCC4(CC3)CC(=O)N(c3ccnc(C(F)(F)F)c3)C4)n(C)c(=O)c12` [Cmpd 1020], under “EC50 given as range classes”, the EC50 is under 10 µM.
Compound `CCn1cc(N2CCC3(CCN(c4cnc5cnn(CC(F)F)c5n4)CC3)C2=O)ccc1=O` [Cmpd 846] displayed a concentration giving a half-maximal response (EC50) under setting [1] of 10 to 50 µM.
Where the note is “EC50 given as range classes”, `O=C1N(c2ccc(C(F)(F)F)cn2)CCC12CCN(c1cnc3cnn(CC(F)F)c3n1)C2` (stereo not drawn) [Cmpd 202] had an EC50 of 10 to 50 µM.
Under setting [1], `CCc1csc(CN2CC3(CCN(c4cnc5cnn(CC(F)F)c5n4)CC3)CC2=O)n1` [Cmpd 367] gave an EC50 of 10 to 50 µM.
On the same count and under the same terms, under `O=C1N(c2cc(C(F)(F)F)ccn2)C(=O)C2(CCN(c3cnc4cnn(CC(F)F)c4n3)CC2)N1Cc1cccc(F)c1F` [Cmpd 717] stands under 10 µM; under `FC(F)Cn1ncc2ncc(N3CCC4(CCN(c5cc(C(F)(F)F)ccn5)C4)CC3)nc21` [Compound 6, 8-[1-(2,2-difluoroethyl)-1H-pyrazolo[3,4-b]pyrazin-6-yl]-2-[4-(trifluoromethyl)pyridin-2-yl]-2,8-diazaspiro[4.5]decane], under 10 µM.
For the setting “EC50 given as range classes”, `FC(F)Cn1ncc2ncc(N3CCC4(CCN(c5cccc(C(F)(F)F)n5)CC4)CC3)nc21` [Cmpd 809] displayed an EC50 of under 10 µM.
In turn, `CC(c1ccc(C(F)(F)F)cn1)N1CC2(CCN(c3cnc4cnn(CC(F)F)c4n3)CC2)CC1=O` (stereo not drawn) [Cmpd 964] had a half-maximal effective concentration (EC50) under setting [1] of under 10 µM.
Under setting [1], `Cc1nc(N2CC3(CCN(c4ncc5cnn(CC(F)F)c5n4)C3)C2)cc(C(F)(F)F)n1` [Cmpd 501] showed an EC50 of over 100 µM.

For the origin of these results see US20250034170A1, “SMALL MOLECULE MODULATORS OF GLUCOCEREBROSIDASE ACTIVITY AND USES THEREOF” (Vanqua Bio, Inc., priority 2021, published 2025).
